Here are results for one compound from US7612107B2, “Treatment and inhibition of disease conditions using flexible heteroarotinoids” (The Board of Regents of the University of Oklahoma, priority 2005, dated 2009).

The test system of assay [1] is A2780 ovarian xenograft tumors. Briefly: A2780 ovarian xenograft tumor model. The format is in vivo, mouse. Conditions: ovarian cancer model. As to the method:
FIG. 12. Various Xenograft tumors stained with CD34 antibodies (brown) to identify endothelium. The B16 mouse melanoma cell line was established as a syngeneic tumor in an immunocompetent mouse model and the human Caki renal cancer and A2780 ovarian xenograft tumors in immunocompromised mice. The treated mice were gavaged with 60 mg/kg/day SHetA2 and the untreated were gavaged with solvent only. The tumors were excised and sections were stained with the anti-CD34 antibody to detect endothelial cells (brown stain).
Survival was the primary endpoint of those studies. […] Tumor growth was the primary endpoint of the renal cancer study.

Assay [2] relates to EAhy.926 endothelial cells. Briefly: Growth/viability of endothelial cells versus ovarian cancer cell lines. The format is cell-based. Conditions: 24 hours. How it is done: The graph on the left provides quantification of the endothelial branches for each treatment dose.
The increased thickness of the vessels at 1 μM and the increasing proportions of solitary clumps of cells at 5 and 10 μM indicate that SHetA2 is inhibiting endothelial cell migration. To determine if this anti-angiogenic activity was due to growth inhibition or cytotoxicity. The viability of the endothelial cells treated with SHetA2 for 24 hours was evaluated. […] This confirms the therapeutic ratio observed in previous studies.

The subject of assay [3] is C6 glioma. The assay is described as follows: Rat glioma (brain cancer) model, MRI. The format is in vivo. Conditions: oral 60 mg/kg/day; vs untreated control. As to the method:
FIG. 9. SHetA2 inhibition of Angiogenesis. C6 glioma cells were injected into the brains of 2 rats. One week later, one rat was gavaged with 60 mg/kg/day SHetA2 on each Monday, Wednesday and Friday. Blood vessels were imaged by MRI.
FIG. 10. […] C6 glioma cells were injected into the brains of 2 rats. One week later, one rat was gavaged with 60 mg/kg/day SHetA2 on each Monday, Wednesday and Friday. The blood flow was measured by MRI imaging.
FIG. 11. SHetA2 inhibition of glioma tumor growth. C6 glioma cells were injected into the brains of 2 rats. One week later, one rat was gavaged with 60 mg/kg/day SHetA2 on each Monday, Wednesday and Friday. The tumor size was measured by MRI imaging.
In this in vivo model, glioma cells are injected into the brains of rats and the growth of the tumor and development of blood vessels in the tumor is measured by magnetic resonance imaging (MRI).

Assay [4] deals with OVCAR-3 xenograft tumors. Briefly: Histochemical and immunohistochemical evaluation of xenograft tumors (glands, MUC-1, TUNEL). The format is in vivo, mouse. Conditions: 10 mg/kg/day gavage, end of treatment. As to the method:
Statistically significant higher levels of glands and MUC-1 expression in the tumors of treated animals in comparison to controls treated with sesame oil are indicated by asterisks (*) and were determined by t-tests. For gland formation, p<0.001 for SHetA2, p=0.097 for SHetA4, p=0.001 for SHet50, and p=0.007 for 4-HPR. For MUC-1 scores, p=0.011 for SHetA2, p=0.050 for SHetA4, p=0.040 for SHet50, and p=0.001 for 4-HPR. The higher levels of TUNEL scores in the tumors of treated animals in comparison to control animals approached significance (t-test, p=0.27 for SHetA2, p=0.48 for SHetA4, p=0.20 for SHet50, and p=0.12 for 4-HPR).
On the last day of treatment, the animals were sacrificed and then the tumors were removed, fixed in neutral buffered formalin and embedded in paraffin. […] MUC-1 expression was detected in tumor sections using a mouse monoclonal antibody to human MUC-1 (Pharmingen, San Diego, Calif.) and the Histostain-Plus AEC Kit (Zymed Laboratories, San Francisco, Calif.) according to manufacturers instructions. […] Tumor sections were scored for number of glands (quantified in one H&E stained sections and 3 MUC-1-stained sections) and MUC-1 and TUNEL staining (based on staining intensity and percent positive cells). […]

For `CC1(C)CC(C)(C)c2cc(NC(=S)Nc3ccc([N+](=O)[O-])cc3)ccc2S1` [SHetA2], the Survival result in assay [1] is “improved survival”. Besides, in assay [2], the “Growth inhibition of endothelial cells compared with A2780 and OVCAR-3” value is on record as “much less growth inhibited”. Moreover, in assay [3], the “Angiogenesis of glioma tumors (MRI)” value is on record as “inhibited the angiogenesis”; the “Growth of glioma tumors (MRI)” value is “inhibited the angiogenesis and growth of the tumors”. Moreover, the “MUC-1 expression in xenograft tumors” value in assay [4] (vs control) is listed as “increase staining”. Besides, in assay [4] (vs untreated control), the “Gland formation in xenograft tumors” value is on record as “greatest degree of gland induction”.
